Assay results taken from ChEMBL document CHEMBL1201862, “PubChem BioAssay data set” (2004).
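Interpolation was linear, between the two tested concentrations surrounding the appropriate level; five concentrations were tested over 48 hours in 96-well plates. GI50 = concentration required for 50% inhibition of growth.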 The source made the active and inactive calls. Cut-off read from the data, not from the text of the source: active = GI50 up to about 1.1 µM and inactive = higher. Starred links: 1 amine or outer side, 2 acyl side, 3 side chain; linkers in the order of their positions; H or OH if unused. Non-standard residues stand in square brackets, D forms with d. Residues, ends and D or L forms follow the SMILES beside them. ξ: configuration not given here. X24 = O=C(C(CC(O)CO)O[*:1])[*:2]; Ile(3ξ) = CCC(C)[C@H](N)C(=O)O; NMeV = CN[C@H](C(=O)O)C(C)C; NMeA = CN[C@@H](C)C(=O)O; βAla = NCCC(=O)O

Assays:
Assay in all cases: NCI anticancer screen, dose series, 48 h
KM-20L2 = system: KM-20L2
RXF 393 = system: RXF 393
U-251 = system: U-251
K562 = system: K562
LOX IMVI = system: LOX IMVI
NCI-H522 = system: NCI-H522
DMS-273 = system: DMS-273
SK-OV-3 = system: SK-OV-3
UACC-62 = system: UACC-62
CCRF-CEM = system: CCRF-CEM
A549 = system: A549
CAKI-1 = system: CAKI-1
NCI-H226 = system: NCI-H226
SK-MEL-5 = system: SK-MEL-5
IGROV-1 = system: IGROV-1
SNB-78 = system: SNB-78
SK-MEL-28 = system: SK-MEL-28
HCT-15 = system: HCT-15
UACC-257 = system: UACC-257
OVCAR-5 = system: OVCAR-5
OVCAR-8 = system: OVCAR-8
NCI-H460 = system: NCI-H460
EKVX = system: EKVX
MCF7 = system: MCF7
HT-29 = system: HT-29
HOP-92 = system: HOP-92
Malme-3M = system: Malme-3M
RPMI-8226 = system: RPMI-8226
SK-MEL-2 = system: SK-MEL-2
HCT-116 = system: HCT-116
OVCAR-3 = system: OVCAR-3
NCI-H23 = system: NCI-H23
UO-31 = system: UO-31
HOP-18 = system: HOP-18
HCC 2998 = system: HCC 2998
NCI/ADR-RES = system: NCI/ADR-RES
SN12C = system: SN12C
DMS-114 = system: DMS-114
SF-539 = system: SF-539
KM12 = system: KM12
DLD-1 = system: DLD-1
SF-295 = system: SF-295
SNB-19 = system: SNB-19
OVCAR-4 = system: OVCAR-4
HOP-62 = system: HOP-62
SW-620 = system: SW-620
A498 = system: A498
SF-268 = system: SF-268
M19-MEL = system: M19-MEL
SNB-75 = system: SNB-75
XF498 = system: XF498
HL-60 = system: HL-60
LXFL 529 = system: LXFL 529
TK-10 = system: TK-10
SR = system: SR
M14 = system: M14
RXF 631 = system: RXF 631
MOLT-4 = system: MOLT-4
COLO 205 = system: COLO 205
786-0 = system: 786-0

Measured: GI50

CCCCCCc1cn([C@H]2C[C@H](O)[C@@H](CO)O2)c(=O)[nH]c1=O
> 100 µM: HCT-15
inactive: KM-20L2 > 100 µM | RXF 393 > 100 µM | U-251 > 100 µM | K562 > 100 µM | LOX IMVI > 100 µM | NCI-H522 > 100 µM | DMS-273 > 100 µM | SK-OV-3 > 10 µM | UACC-62 > 31.6 µM | CCRF-CEM > 100 µM | A549 > 100 µM | CAKI-1 > 100 µM | NCI-H226 > 100 µM | SK-MEL-5 > 100 µM | IGROV-1 > 100 µM | SNB-78 > 100 µM | SK-MEL-28 > 100 µM | UACC-257 > 100 µM | OVCAR-5 > 100 µM | OVCAR-8 > 100 µM | NCI-H460 > 100 µM | EKVX > 100 µM | MCF7 > 100 µM | HT-29 > 100 µM | HOP-92 > 100 µM | Malme-3M > 100 µM | RPMI-8226 > 100 µM | SK-MEL-2 > 100 µM | HCT-116 > 100 µM | OVCAR-3 > 100 µM | NCI-H23 > 100 µM | UO-31 > 100 µM | HOP-18 > 100 µM | HCC 2998 > 100 µM | NCI/ADR-RES > 100 µM | SN12C > 100 µM | DMS-114 > 100 µM | SF-539 > 100 µM | KM12 > 100 µM | DLD-1 > 100 µM | SF-295 > 31.6 µM | SNB-19 > 100 µM | OVCAR-4 > 100 µM | HOP-62 > 10 µM | SW-620 > 100 µM | A498 > 100 µM | SF-268 > 100 µM | M19-MEL > 100 µM | SNB-75 > 100 µM | XF498 > 100 µM | HL-60 > 100 µM

CCC(C)[C@@H]1NC(=O)[C@@H]2CCCN2C(=O)C(CC(O)CO)OC(=O)CCNC(=O)[C@H](C)N(C)C(=O)[C@H](C(C)C)N(C)C1=O (some centres undefined) (cyclo([Ile(3ξ)][NMeV][NMeA][βAla][X24]P))
inactive: KM-20L2 > 100 µM | LXFL 529 44.6 µM | RXF 393 > 100 µM | U-251 > 100 µM | K562 > 100 µM | LOX IMVI 84.5 µM | DMS-273 > 100 µM | SK-OV-3 > 100 µM | UACC-62 > 100 µM | CCRF-CEM 35.8 µM | TK-10 > 100 µM | A549 > 100 µM | SR > 100 µM | M14 > 100 µM | CAKI-1 > 100 µM | NCI-H226 > 100 µM | RXF 631 > 100 µM | SK-MEL-5 > 100 µM | IGROV-1 > 100 µM | SNB-78 > 100 µM | SK-MEL-28 > 100 µM | UACC-257 > 100 µM | OVCAR-5 > 100 µM | OVCAR-8 > 100 µM | MOLT-4 43.1 µM | NCI-H460 > 100 µM | HT-29 > 100 µM | HOP-92 > 100 µM | Malme-3M > 100 µM | RPMI-8226 > 100 µM | SK-MEL-2 > 100 µM | HCT-116 > 100 µM | OVCAR-3 > 100 µM | NCI-H23 > 100 µM | UO-31 > 100 µM | SN12C > 100 µM | SF-539 > 100 µM | KM12 > 100 µM | COLO 205 > 100 µM | DLD-1 > 100 µM | SF-295 91 µM | SNB-19 > 100 µM | OVCAR-4 > 100 µM | HOP-62 > 100 µM | SW-620 > 100 µM | A498 > 100 µM | SF-268 > 100 µM | 786-0 > 100 µM | M19-MEL > 100 µM | SNB-75 > 100 µM | XF498 > 100 µM | HL-60 > 100 µM
> 100 µM: HCT-15

CC(=O)C(=Cc1cn(C)c(=O)n(C)c1=O)C(C)=O
94 µM: HCT-15
inactive: KM-20L2 85.7 µM | RXF 393 60.1 µM | U-251 > 96.8 µM | K562 138 µM | LOX IMVI 71.1 µM | NCI-H522 16.8 µM | DMS-273 98.6 µM | SK-OV-3 99.8 µM | UACC-62 75.9 µM | CCRF-CEM 49.4 µM | A549 157 µM | CAKI-1 83 µM | NCI-H226 116 µM | SK-MEL-5 86.9 µM | IGROV-1 150 µM | SNB-78 214 µM | SK-MEL-28 100 µM | UACC-257 85.9 µM | OVCAR-5 97.7 µM | OVCAR-8 126 µM | MOLT-4 119 µM | NCI-H460 92.3 µM | EKVX 121 µM | MCF7 159 µM | HT-29 113 µM | HOP-92 2.62 µM | Malme-3M 83 µM | RPMI-8226 89.9 µM | SK-MEL-2 106 µM | HCT-116 87.5 µM | OVCAR-3 116 µM | NCI-H23 69.5 µM | UO-31 83.8 µM | HOP-18 160 µM | HCC 2998 122 µM | NCI/ADR-RES 93.1 µM | SN12C 99.1 µM | DMS-114 88.9 µM | SF-539 103 µM | KM12 85.1 µM | COLO 205 80.9 µM | DLD-1 94.8 µM | SF-295 107 µM | SNB-19 125 µM | OVCAR-4 105 µM | HOP-62 137 µM | SW-620 106 µM | A498 101 µM | SF-268 148 µM | M19-MEL 109 µM | SNB-75 65 µM | XF498 37.8 µM | HL-60 84.3 µM
